A value given as a limit tells only on which side of the number the result lay.

A word on the IC50: it is the concentration at which inhibition is half-maximal.

In test [1] the target is human JAK2 (Homo sapiens (Human), UniProt O60674). Nature of the test: JAK2 TR-FRET kinase assay. It counts as biochemical. As to conditions: JAK2 0.025 nM. A general note: Time-resolved FRET reads energy transfer from a long-lived donor to a nearby acceptor.
Test [2] deals with human JAK3 (Homo sapiens (Human), UniProt P52333). Nature of the test: JAK3 TR-FRET kinase assay. It is filed as biochemical. As to conditions: JAK3 0.0125 nM.
For test [3], the target named is human JAK1 (Homo sapiens (Human), UniProt P23458). In words: JAK1 TR-FRET kinase assay. It counts as biochemical. Particulars: TR-FRET, JAK1 2.5 nM.
Test [4] concerns the target TYK2 JH2 domain (Homo sapiens (Human), UniProt P29597). Nature of the test: TYK2 JH2 NanoBRET assay. It is filed as binding. As to conditions: Table 20, read-out: TYK2 IC50. An outline of the steps: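 HEK293T cells transiently expressing NanoLuc-TYK2 JH2 fusion, incubated 2 h with compound and NanoBRET K10 tracer (0.5 µM final). Target engagement read as acceptor/donor BRET ratio after Nano-Glo substrate plus extracellular NanoLuc inhibitor.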
On the technique in general: Bioluminescence resonance energy transfer reports proximity on the nanometre scale.

Chain of human JAK1 (P23458 whole entry, the tested form may be a part): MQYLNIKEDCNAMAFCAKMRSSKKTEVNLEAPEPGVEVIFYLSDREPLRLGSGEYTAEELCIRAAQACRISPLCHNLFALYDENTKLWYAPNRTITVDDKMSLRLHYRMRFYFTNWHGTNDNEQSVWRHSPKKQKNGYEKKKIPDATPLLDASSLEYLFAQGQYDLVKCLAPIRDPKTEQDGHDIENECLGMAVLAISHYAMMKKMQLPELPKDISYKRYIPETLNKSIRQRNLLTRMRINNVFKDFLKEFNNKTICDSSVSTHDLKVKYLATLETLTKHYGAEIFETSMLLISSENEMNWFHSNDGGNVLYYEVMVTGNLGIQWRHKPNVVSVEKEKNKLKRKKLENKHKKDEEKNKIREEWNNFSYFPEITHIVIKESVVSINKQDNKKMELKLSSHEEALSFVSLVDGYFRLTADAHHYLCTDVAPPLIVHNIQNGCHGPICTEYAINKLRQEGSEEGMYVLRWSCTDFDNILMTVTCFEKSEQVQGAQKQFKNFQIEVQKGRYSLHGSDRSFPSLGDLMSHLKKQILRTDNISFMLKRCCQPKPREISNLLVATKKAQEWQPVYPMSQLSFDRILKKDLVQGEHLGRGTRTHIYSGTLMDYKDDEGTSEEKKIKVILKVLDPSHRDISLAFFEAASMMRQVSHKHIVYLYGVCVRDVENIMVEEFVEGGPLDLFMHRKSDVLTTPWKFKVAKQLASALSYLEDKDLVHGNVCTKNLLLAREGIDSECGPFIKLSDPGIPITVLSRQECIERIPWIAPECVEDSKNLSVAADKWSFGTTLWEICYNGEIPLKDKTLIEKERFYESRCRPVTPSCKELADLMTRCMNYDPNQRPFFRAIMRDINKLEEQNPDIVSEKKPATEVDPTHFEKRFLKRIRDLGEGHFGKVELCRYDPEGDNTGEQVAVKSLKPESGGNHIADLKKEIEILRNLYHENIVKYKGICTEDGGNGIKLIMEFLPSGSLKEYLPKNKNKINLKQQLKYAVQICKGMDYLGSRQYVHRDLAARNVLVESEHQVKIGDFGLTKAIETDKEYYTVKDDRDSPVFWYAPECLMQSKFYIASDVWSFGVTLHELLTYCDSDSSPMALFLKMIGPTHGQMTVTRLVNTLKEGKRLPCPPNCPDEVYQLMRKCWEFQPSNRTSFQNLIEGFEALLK
Chain of TYK2 JH2 domain (P29597 589-875): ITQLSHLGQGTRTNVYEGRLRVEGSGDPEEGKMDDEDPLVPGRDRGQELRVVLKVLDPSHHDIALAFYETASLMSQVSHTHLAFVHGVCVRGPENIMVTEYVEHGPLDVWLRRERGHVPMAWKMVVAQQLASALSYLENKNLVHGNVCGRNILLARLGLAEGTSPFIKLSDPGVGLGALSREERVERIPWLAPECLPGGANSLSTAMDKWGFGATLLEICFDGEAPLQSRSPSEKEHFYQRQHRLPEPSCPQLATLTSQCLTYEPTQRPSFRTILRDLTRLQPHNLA
Chain of human JAK2 (O60674 whole entry): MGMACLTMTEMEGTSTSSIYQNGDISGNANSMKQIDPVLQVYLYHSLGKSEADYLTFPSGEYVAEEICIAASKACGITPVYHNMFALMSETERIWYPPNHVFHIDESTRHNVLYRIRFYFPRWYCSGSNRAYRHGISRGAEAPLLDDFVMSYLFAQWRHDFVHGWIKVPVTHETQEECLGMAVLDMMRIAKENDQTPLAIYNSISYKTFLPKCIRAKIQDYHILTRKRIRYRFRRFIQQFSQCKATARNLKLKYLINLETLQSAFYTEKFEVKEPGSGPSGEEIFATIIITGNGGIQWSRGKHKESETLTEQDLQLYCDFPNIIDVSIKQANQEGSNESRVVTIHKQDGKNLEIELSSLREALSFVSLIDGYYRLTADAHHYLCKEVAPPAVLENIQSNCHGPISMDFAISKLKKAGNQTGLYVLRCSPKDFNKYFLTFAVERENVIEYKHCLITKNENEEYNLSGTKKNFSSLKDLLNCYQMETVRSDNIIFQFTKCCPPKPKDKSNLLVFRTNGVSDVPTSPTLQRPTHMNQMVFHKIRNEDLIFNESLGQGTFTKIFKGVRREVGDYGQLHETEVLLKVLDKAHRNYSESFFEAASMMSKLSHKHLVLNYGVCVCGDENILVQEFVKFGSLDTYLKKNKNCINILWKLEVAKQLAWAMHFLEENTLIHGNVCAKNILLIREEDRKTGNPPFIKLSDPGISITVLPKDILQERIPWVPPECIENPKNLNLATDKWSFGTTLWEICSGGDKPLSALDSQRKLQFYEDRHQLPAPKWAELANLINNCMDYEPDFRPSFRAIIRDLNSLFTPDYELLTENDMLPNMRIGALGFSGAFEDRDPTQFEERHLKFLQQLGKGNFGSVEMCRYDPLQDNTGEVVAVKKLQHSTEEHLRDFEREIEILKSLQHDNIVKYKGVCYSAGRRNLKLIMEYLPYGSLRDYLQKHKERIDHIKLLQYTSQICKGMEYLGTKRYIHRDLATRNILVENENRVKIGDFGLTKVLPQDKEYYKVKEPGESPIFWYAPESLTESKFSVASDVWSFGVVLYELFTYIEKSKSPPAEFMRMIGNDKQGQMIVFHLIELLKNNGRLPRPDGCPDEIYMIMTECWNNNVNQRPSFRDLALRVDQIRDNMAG
Chain of human JAK3 (P52333 whole entry): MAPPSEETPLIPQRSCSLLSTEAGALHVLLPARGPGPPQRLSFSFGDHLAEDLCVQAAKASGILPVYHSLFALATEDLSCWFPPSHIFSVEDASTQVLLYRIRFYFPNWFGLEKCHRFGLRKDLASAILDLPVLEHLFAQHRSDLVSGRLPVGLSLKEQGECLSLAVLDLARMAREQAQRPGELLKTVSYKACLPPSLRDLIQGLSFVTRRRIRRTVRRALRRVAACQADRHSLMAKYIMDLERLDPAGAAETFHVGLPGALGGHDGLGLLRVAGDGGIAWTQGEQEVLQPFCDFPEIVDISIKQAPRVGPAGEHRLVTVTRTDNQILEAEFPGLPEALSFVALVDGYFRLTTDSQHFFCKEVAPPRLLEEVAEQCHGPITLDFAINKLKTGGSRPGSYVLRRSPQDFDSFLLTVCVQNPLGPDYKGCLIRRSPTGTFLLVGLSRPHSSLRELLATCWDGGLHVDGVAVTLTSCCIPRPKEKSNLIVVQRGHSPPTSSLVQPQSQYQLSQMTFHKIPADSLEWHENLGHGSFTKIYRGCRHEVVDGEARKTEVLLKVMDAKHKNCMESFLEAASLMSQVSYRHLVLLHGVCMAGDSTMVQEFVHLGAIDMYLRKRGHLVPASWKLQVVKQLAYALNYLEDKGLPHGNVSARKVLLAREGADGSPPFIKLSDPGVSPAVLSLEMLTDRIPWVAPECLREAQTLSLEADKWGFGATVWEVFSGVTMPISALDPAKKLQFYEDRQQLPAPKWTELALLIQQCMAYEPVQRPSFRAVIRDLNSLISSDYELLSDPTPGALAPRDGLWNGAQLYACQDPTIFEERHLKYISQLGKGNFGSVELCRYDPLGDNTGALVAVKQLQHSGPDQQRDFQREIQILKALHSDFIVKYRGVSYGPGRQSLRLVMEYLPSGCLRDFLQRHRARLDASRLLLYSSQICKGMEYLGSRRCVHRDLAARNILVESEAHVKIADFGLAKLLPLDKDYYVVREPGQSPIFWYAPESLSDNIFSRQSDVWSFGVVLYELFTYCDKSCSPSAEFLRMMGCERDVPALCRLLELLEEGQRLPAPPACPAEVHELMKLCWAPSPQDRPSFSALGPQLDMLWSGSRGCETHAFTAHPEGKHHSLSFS

Regarding `CCC(=O)c1cnc(Nc2cc(OC)n(CCOC)n2)cc1Nc1cccc(-c2ncn(C)n2)c1OC` [Compound 21Y], the IC50 in test [1] was 50 to 500 nM; in test [2], 50 to 500 nM; in test [3] it was ≥ 500 nM; in test [4] it was 5 to 50 nM.

As to `CCC(=O)c1cnc(Nc2cc(C)n([C@H]3C[C@@H](O)C3)n2)cc1Nc1cccc(-c2ncn(C)n2)c1OC` [Compound 21DD], the IC50 in test [1] was ≥ 500 nM; in test [2], ≥ 500 nM; in test [3], ≥ 500 nM; in test [4], 5 to 50 nM.

`CCC(=O)c1cnc(Nc2cc(C(C)N(C)C)ncn2)cc1Nc1cccc(-c2ncn(C)n2)c1OC` (stereo not shown) [Compound 9QQQQ]: the IC50 was ≥ 500 nM in test [1], ≥ 500 nM in test [2], ≥ 500 nM in test [3] and < 5 nM in test [4].

As for `CCC(=O)c1cnc(Nc2ccc(S(C)(=O)=O)cn2)cc1Nc1cccc(C(C)(C)O)c1OC` [Compound 13Y], the IC50 in test [1] is ≥ 500 nM; in test [2], ≥ 500 nM; in test [3], ≥ 500 nM; in test [4], 50 to 500 nM.

For the molecule `CCC(=O)c1cnc(NC(=O)[C@@H]2C[C@H]2NC(C)=O)cc1Nc1cccc(-c2ncn(C)n2)c1OC` [Compound 22I], the IC50 in test [1], in test [2], in test [3] and in test [4] was ≥ 500 nM in each case.

Regarding `CCC(=O)c1cnc(Nc2ccc(OC3COC3)cn2)cc1Nc1cccc(-c2ncn(C)n2)c1OC` [Compound 18Z], the IC50 was ≥ 500 nM in test [1], ≥ 500 nM in test [2], ≥ 500 nM in test [3] and < 5 nM in test [4].

Take `CCC(=O)c1cnc(Nc2cnc(OC3CCN(C)CC3)cn2)cc1Nc1cccc(-c2ncn(C)n2)c1OC` [Compound 18EEE]: the IC50 in test [1] is ≥ 500 nM; in test [2] it was ≥ 500 nM; in test [3] it was ≥ 500 nM; in test [4] it was < 5 nM.

Turning to `CCC(=O)c1cnc(NC(=O)[C@@H]2C[C@@H]2C(N)=O)cc1Nc1cccc(-c2ncn(C)n2)c1OC` [Compound 22G], the IC50 in test [1], in test [2], in test [3] and in test [4] was ≥ 500 nM in each case.

Turning to `CCC(=O)c1cnc(Nc2ccc(OCCN3CCCC3)cn2)cc1Nc1cccc(-c2ncn(C)n2)c1OC` [Compound 10A, 1-(4-((2-methoxy-3-(1-methyl-1H-1,2,4-triazol-3-yl)phenyl)amino)-6-((5-(2-(pyrrolidin-1-yl)ethoxy)pyridin-2-yl)amino)pyridin-3-yl)propan-1-one], the IC50 in test [1] was ≥ 500 nM; in test [2], ≥ 500 nM; in test [3], ≥ 500 nM; in test [4] it was < 5 nM.

As for `CCC(=O)c1cnc(Nc2ccc([C@@H](C)N3CC[C@H](O)C3)cn2)cc1Nc1cccc(-c2ncn(C)n2)c1OC` [Compound 9MM], the IC50 in test [1] is ≥ 500 nM; in test [2], ≥ 500 nM; in test [3] it was ≥ 500 nM; in test [4], < 5 nM.

For the molecule `CCC(=O)c1cnc(Nc2ccc(CS(C)(=O)=O)nn2)cc1Nc1cccc(-c2ncn(C)n2)c1OC` [Compound 13T], the 50% inhibitory concentration (IC50) is ≥ 500 nM in test [1], ≥ 500 nM in test [2], ≥ 500 nM in test [3] and 5 to 50 nM in test [4].

Turning to `CCC(=O)c1cnc(Nc2cnc(CN(C)C)cn2)cc1Nc1cccc(-c2ncn(C)n2)c1OC` [Compound 9SSS], the IC50 was ≥ 500 nM in test [1], ≥ 500 nM in test [2], ≥ 500 nM in test [3] and < 5 nM in test [4].

In the case of `CCC(=O)c1cnc(Nc2cnc(C(F)(F)CO)cn2)cc1Nc1cccc(-c2ncn(C)n2)c1OC` [Compound 19D], the IC50 in test [1] was ≥ 500 nM; in test [2], ≥ 500 nM; in test [3] it was ≥ 500 nM; in test [4], 5 to 50 nM.

On to `CCC(=O)c1cnc(NC(=O)[C@@H]2C[C@H]2C(N)=O)cc1Nc1cccc(-c2ncn(C)n2)c1OC` [Compound 22E], for which the IC50 in test [1], in test [2], in test [3] and in test [4] was ≥ 500 nM in each case.

For `COc1c(Nc2cc(Nc3ccc(CN(C)C)cn3)ncc2C(=O)C2CC2)cccc1-c1ncn(C)n1` [Compound 9F], the IC50 in test [1] was ≥ 500 nM; in test [2] it was ≥ 500 nM; in test [3], ≥ 500 nM; in test [4] it was 5 to 50 nM.

Regarding `CCC(=O)c1cnc(Nc2ccc([C@@H](C)N3CC4(COC4)C3)cn2)cc1Nc1cccc(-c2ncn(C)n2)c1OC` [Compound 9BBB], the IC50 is 50 to 500 nM in test [1], 50 to 500 nM in test [2], ≥ 500 nM in test [3] and < 5 nM in test [4].

As to `CCC(=O)c1cnc(Nc2cnc(C3(N)CC3)cn2)cc1Nc1cccc(-c2ncn(C)n2)c1OC` [Compound 9YYY], the concentration for half-maximal inhibition (IC50) is ≥ 500 nM in test [1], ≥ 500 nM in test [2], ≥ 500 nM in test [3] and 5 to 50 nM in test [4].

`CCC(=O)c1cnc(NC(=O)[C@@H]2C[C@@H]2NC(C)=O)cc1Nc1cccc(-c2ncn(C)n2)c1OC` [Compound 22K]: the IC50 in test [1], in test [2], in test [3] and in test [4] was ≥ 500 nM in each case.

For `CCC(=O)c1cnc(NC(=O)C2CC2)cc1Nc1cc(F)cc(-c2ncn(C)n2)c1OC` [Compound 25A, N-(4-((5-fluoro-2-methoxy-3-(1-methyl-1H-1,2,4-triazol-3-yl)phenyl)amino)-5-propionylpyridin-2-yl)cyclopropanecarboxamide], the concentration for half-maximal inhibition (IC50) in test [1] was ≥ 500 nM; in test [2], ≥ 500 nM; in test [3] it was ≥ 500 nM; in test [4], 5 to 50 nM.

Regarding `CCC(=O)c1cnc(Nc2ccc(S(C)(=N)=O)cn2)cc1Nc1nccc(-c2ncn(C)n2)c1OC` (stereo not shown) [Compound 13L], the IC50 in test [1], in test [2], in test [3] and in test [4] was ≥ 500 nM in each case.

As for `CCC(=O)c1cnc(Nc2cnc(OCCO)cn2)cc1Nc1cccc(-c2ncn(C)n2)c1OC` [Compound 18P], the IC50 is ≥ 500 nM in test [1], ≥ 500 nM in test [2], ≥ 500 nM in test [3] and 5 to 50 nM in test [4].

`CCC(=O)c1cnc(Nc2ccc(OC3CN(C)C3)cn2)cc1Nc1cccc(-c2ncn(C)n2)c1OC` [Compound 18U]: the IC50 was ≥ 500 nM in test [1], ≥ 500 nM in test [2], ≥ 500 nM in test [3] and < 5 nM in test [4].

As for `CCC(=O)c1cnc(NC(=O)[C@@H]2C[C@H]2NC(=O)OC(C)(C)C)cc1Nc1cccc(-c2ncn(C)n2)c1OC` [Compound 22H], the IC50 in test [1], in test [2], in test [3] and in test [4] was ≥ 500 nM in each case.

As to `CCC(=O)c1cnc(NC(=O)C2CC2)cc1Nc1cc(C#N)cc(-c2ncn(C)n2)c1OC` [Compound 25B], the IC50 in test [1], in test [2], in test [3] and in test [4] was ≥ 500 nM throughout.

On to `CCC(=O)c1cnc(Nc2ccc(O[C@H]3CN(C)C[C@@H]3O)cn2)cc1Nc1cccc(-c2ncn(C)n2)c1OC` [Compound 18S], for which the IC50 in test [1] was ≥ 500 nM; in test [2], 50 to 500 nM; in test [3], ≥ 500 nM; in test [4] it was 5 to 50 nM.

The values are drawn from patent US20230295119A1, “SUBSTITUTED PYRIDINES FOR THE TREATMENT OF INFLAMMATORY DISEASES” (GOSSAMER BIO SERVICES, INC., priority 2020, published 2023).
